Results: patent publication US20110076349A1 (priority 2008, published 2011)
Structures can show the parent of a compound that is named as a salt.

Tests used:
Assay type in all cases: in vivo, mouse
male C57BL/6N mice [1] = experiment: Forced swimming treatment and amount of spontaneous activity in dark period (fatigue-relieving effects); conditions: dark period after 30 minutes of forced swimming; compared with FS-Vehicle group
Procedure: An experiment for determining the fatigue-improving effects (action) was conducted using a forced swimming test for mice and a system for measuring the amount of spontaneous activity. Sixty eight (68) male C57BL/6N mice that had experienced no experiment were bred in an animal room with a constant temperature and humidity for which a 12-12-hour light-dark cycle had been set. Mice were sufficiently acclimatized to breeding environment and then used as subject animals. At the start of the experiment, mice were 10-12-week old and the average body weight was 22.8 g (SD =1.28). The subject animals were divided into seven groups so that the groups were almost the same in terms of average body weights and average ages in weeks. These groups were designated an FS-Akino group (n=11), an FS-Vehicle group (n=10), a noFS-Vehicle group (n=9), an FS-Dia group (n=9), an FS-Caf group (n=9), an FS-Imi group (n=11), and an FS-SSRI group (n=9).
A cylindrical water tank (with the bottom surface having a diameter of 18 cm and a height of 29 cm) placed in an experimental chamber capable of achieving sound proof and light shielding was filled with water at 24±1° C. to a depth of 15 cm. At 7 hours before the start of a dark period, subject mice under FS conditions were subjected to 30 minutes of forced swimming treatment in the tank. Specifically, subject mice were forced to swim under conditions in which they could not escape. Subject mice of the control noFS-Cnt group were left to stand within the same type of empty water tank for 30 minutes.
After 30 minutes of forced swimming treatment, Akino (the water soluble ingredient extracted from Hemerocallis fulva var. sempervirens), diazepam (Dia, 2.5 mg/kg), caffeine (Caf, 15 mg/kg), imipramine (Imi, 30 mg/kg), SSRI (fluvoxamine maleate, 25 mg/kg), or Vehicle (distilled water), which is an ingredient, corresponding to the latter half of each group name, were specifically administered to each subject mouse. Akino and distilled water were orally administered using a stomach tube, and diazepam, caffeine, imipramine, and SSRI were injected intraperitoneally. The dose was always 10 ml of solution per kg mouse body weight.
After administration of these drugs, subject mice were placed in acrylic cages (20 cm long×30 cm wide×12 cm high). The amount of spontaneous activity (in the dark period that began at 6 hours after administration) was continuously measured for 12 hours. The breeding cages used herein were sterilized in advance. All floor mats, feeding stuffs, water supply bottles, and the like used herein were newly prepared. The amount of spontaneous activity was measured using a system for measuring the amount of exercise of experimental animals (Muromachi Kikai Co., Ltd.) using Super Mex Sensor and dedicated software (CompACT AMS ver.3).

mice [2] = experiment: Comparison of sedative effects with other test substances (FIG. 3); conditions: same dose, 0.8 g/kg, p.o.
mice [3] = experiment: Deep body temperature measurement, comparison with other test substances (FIG. 18); conditions: same concentration for all test substances
male C57BL/6N mice [4] = experiment: Open space swimming treatment and water maze learning (antidepressant-like effects); conditions: phase 2 after open space swimming; 25 mg/kg intraperitoneal
Description: Fifty (50) male C57BL/6N mice that had experienced no experiment were bred in an animal room with a constant temperature and humidity for which a 12-12-hour light-dark cycle had been set. Mice were sufficiently acclimatized to breeding environment and then used as subject animals. At the start of the experiment, mice were 10-14-week old and the average body weight was 23.7 g (SD=3.21). The subject animals were divided into four groups each consisting of 12 or 13 mice so that the groups were almost the same average body weights and average ages in weeks. These groups were designated an OS-Akino group, an OS-SSRI group, an OS-Vehicle group, and a noOS-Vehicle group, respectively. An experimental apparatus was a circular pool coated white having a diameter of 110 cm and a height of 40 cm. The pool was filled with water to the depth of 22 cm. Titanium oxide was added to make water cloudy. The water temperature was maintained at 24° C.±1 ° C.
The experiment was composed of two phases. In phase 1, subject mice of the 3 groups under OS conditions were subjected to open space swimming treatment (OS) for 5 straight days. Specifically, subject mice were released into the pool from a wall once a day and then caused to swim for 5 minutes. […] Specifically, 5 times a day, mice were released into the pool and then the time for the mice to reach the escape platform (escape latency) was measured. […]

Row | SMILES | amount of spontaneous activity (male C57BL/6N mice [1]) | sedative effects (mice [2]) | rectal temperature (deep body temperature) (mice [3]) | water maze learning (male C57BL/6N mice [4])
1 | Cn1c(=O)c2c(ncn2C)n(C)c1=O [Caf, caffeine] | equivalent to that of the FS-Vehicle group |  |  | 
2 | CN1C(=O)CN=C(c2ccccc2)c2cc(Cl)ccc21 [Dia, diazepam] | higher than that of the FS-Vehicle group |  |  | 
3 | NCCCC(=O)O [GABA, γ-aminobutyric acid] |  | sedative effects | lowered the deep body temperature, but the rate of decrease was lower | 
4 | CN(C)CCCN1c2ccccc2CCc2ccccc21 [Imi, imipramine] | equivalent to that of the FS-Vehicle group |  |  | 
5 | COCCCC/C(=N\OCCN)c1ccc(C(F)(F)F)cc1 [SSRI, fluvoxamine maleate] | equivalent to that of the FS-Vehicle group |  |  | good learning
6 | NCC(=O)O [glycine] |  | sedative effects | lowered the deep body temperature, but the rate of decrease was lower | 
7 | CCNC(=O)CC[C@H](N)C(=O)O [teanin] |  | sedative effects | lowered the deep body temperature, but the rate of decrease was lower | 
